CC50 data for 32 molecules are collected here from ChEMBL document CHEMBL5303711, “ECBD screening data for assay EOS300108” (2023).

Molecules are shown by their SMILES. Active and inactive are the calls of the source. The rule behind the calls is not given here.

This series can be described thus: Cytotoxicity activity against human HepG2 cells assessed by CellTiter-Glo luminescent cell viability assay. It counts as toxicity, cell-based. Also noted: assay stage confirmatory assay, source tissue liver. As to conditions: HepG2 cells, read-out: IC50 relative. For orientation: Cellular ATP, detected with luciferase, serves as a proxy for viable cell number.

With `O=C(Nc1ccc(Cl)c(Cl)c1)Nc1ccc(Cl)c(Cl)c1`, the CC50 was 13.1 µM (active).

With `Nc1nc(S)c2ncn(C3OC(CO)C(O)C3O)c2n1` (configuration not stated), the CC50 is 2.5 µM (active).

With `NCCCCNS(=O)(=O)c1ccc2c(Cl)cccc2c1`, the CC50 was 13 µM (active).

With `O=[N+]([O-])c1ccc(NN=Cc2sc(N3CCOCC3)nc2-c2ccccc2)c(S(=O)(=O)Nc2ccccc2Cl)c1`, the CC50 is 2.7 µM (active).

Turning to `CC1(C)CC(Nc2ccc(Nc3ccccc3)cc2)CC(C)(C)N1`, the CC50 was 10.9 µM (active).

In the case of `CCOc1cc(C(Nc2cc(C)ccn2)c2ccc3cccnc3c2O)ccc1OC` (configuration not stated), the CC50 is 3.7 µM (active).

Take `O=[N+]([O-])c1ccc(CN2CCOCCOCCN(Cc3ccc([N+](=O)[O-])cc3)CCOCC2)cc1`: the CC50 is 10.4 µM (active).

Turning to `Nc1c(C(=O)NCc2ccco2)c2nc3ccccc3nc2n1CCN1CCCCC1`, the CC50 is 8.9 µM (active).

Turning to `CCC1=NNc2cccc3c(OC)ccc1c23`, the CC50 is 8.8 µM (active).

With `Cc1ccccc1OCc1n(CC(=O)OC2CC(C)CCC2C(C)C)c2ccccc2[n+]1C` (configuration not stated), the CC50 was 4.4 µM (active).

On to `CC(C)(C)C(=O)/C(=C/c1cccc([N+](=O)[O-])c1)n1cncn1`, for which the CC50 is 0.6 µM (active).

Take `COc1ccc2c(C)nc(Nc3nc(C)c(C)c(=O)[nH]3)nc2c1`: the CC50 is 6.7 µM (active).

In the case of `CC1OC(OC2CC(O)C3(CO)C4C(O)CC5(C)C(C6=CC(=O)OC6)CCC5(O)C4CCC3(O)C2)C(O)C(O)C1O` (configuration not stated), the CC50 was 0.1 µM (active).

Take `O=C(CC1Sc2ncnn2C1=O)Nc1ccc(Br)cc1` (configuration not stated): the CC50 is 15.3 µM (inactive).

As for `CCOC(=O)C(C)Oc1cccc2c(=O)n(CC(=O)Nc3ccc(OC)cc3)ccc12` (configuration not stated), the CC50 was 15.4 µM (inactive).

As for `Nc1ncnc2c1ncn2[C@@H]1CC[C@@H](O)[C@H]1O`, the CC50 was 1.6 µM (active).

As to `Brc1c(Br)c(Br)c2[nH]cnc2c1Br`, the CC50 was 7.4 µM (active).

`CCN1/C(=C/c2ccc3ccccc3[n+]2CC)C=Cc2ccccc21`: the CC50 is 1 µM (active).

Turning to `Nc1ccc2c(c1)C(=O)C(=O)c1ccccc1-2`, the CC50 was 4.2 µM (active).

Turning to `O=C1C(=O)c2cc([N+](=O)[O-])ccc2-c2ccccc21`, the CC50 was 1.5 µM (active).

As for `COc1cc2c(N3CCN(C(=O)Nc4ccc(OC(C)C)cc4)CC3)ccnc2cc1OCCCN1CCCCC1`, the CC50 was 7.4 µM (active).

On to `C[C@]12CCC3[C@@H](CC[C@]4(O)C[C@@H](O)CC[C@]34C=O)[C@@]1(O)CC[C@@H]2C1=CC(=O)OC1` (some centres not stated), for which the CC50 is 0.4 µM (active).

On to `CC1CC[C@@]2(NC1)O[C@H]1C[C@H]3[C@@H]4CC=C5CC(O)CCC5(C)C4CCC3(C)[C@H]1[C@@H]2C` (some centres not stated), for which the CC50 was 25.1 µM (inactive).

For the molecule `COc1ccc(N2C(=O)/C(=C\c3ccc(O)c(Br)c3)SC2=S)cc1`, the CC50 is 10.3 µM (active).

With `CCN1/C(=C/C(C)=C/c2sc3ccccc3[n+]2CC)Sc2ccccc21`, the CC50 is 0.4 µM (active).

`CCC(C)C1OC2(CCC1C)CC1CC(C/C=C(/C)C(OC3CC(OC)C(OC4CC(OC)C(O)C(C)O4)C(C)O3)C(C)/C=C\C=C3\COC4C(O)C(C)=CC(C(=O)O1)C34O)O2` (configuration not stated): the CC50 is 11.1 µM (active).

In the case of `COC1=C2C[C@@H](C)C[C@H](OC)[C@H](O)[C@@H](C)/C=C(/C)[C@H](OC(N)=O)[C@@H](OC)/C=C\C=C(\C)C(=O)NC(=CC1=O)C2=O`, the CC50 is < 0.1 µM (active).

As for `Nc1ccc(O)c2ncccc12`, the CC50 was 1.4 µM (active).

Regarding `c1ccc2c(NCCCCCCNc3c4c(nc5ccccc35)CCCC4)c3c(nc2c1)CCCC3`, the CC50 was 1.2 µM (active).

In the case of `NCc1ccc(-c2ccccc2)s1`, the CC50 was 5.9 µM (active).

Regarding `FC(F)(F)c1cccc(Nc2nc(-c3ccccc3)nc3ncccc23)c1`, the CC50 was 41.6 µM (inactive).

For the molecule `Cc1ccc(Sc2cccc3nc(N)nc(N)c23)cc1`, the CC50 was 8.3 µM (active).
